According to the NIST ThermoML archive (doi:10.1021/acs.jced.7b00944):
± gives the expanded uncertainty stated by the source.

Details: 298.2 K, 101.33 kPa, Liquid; for viscosity: Falling or rolling sphere viscometry; for mass density: Vibrating tube method

| viscosity | mass density | SMILES |
| --- | --- | --- |
| 0.972 ± 0.12 mPa·s | 840.73 ± 6 kg/m3 | C=C(C)[C@H]1CC=C(C)CC1 [(R)-1-methyl-4-(1-methylethenyl)cyclohexene] |
| 873.6 ± 140 mPa·s | 1257.7 ± 6.1 kg/m3 | OCC(O)CO [glycerol] |
| 4.238 ± 0.51 mPa·s | 856.25 ± 6.1 kg/m3 | C=CC(C)(O)CCC=C(C)C (stereo not drawn) [3,7-dimethyl-1,6-octadien-3-ol] |
| 1.04 ± 0.12 mPa·s | 786.1 ± 6 kg/m3 | CCO [ethanol] |
